According to publication PMC5904360, “Soluble N-Ethylmaleimide-Sensitive Factor Attachment Protein Receptor-Derived Peptides for Regulation of Mast Cell Degranulation” (Frontiers in Immunology, 2018):
Each block holds one sequence with its values, some of them ahead of it.

Columns and labels:
[1] = molecular target: T1, SN23-Syn4-Vp2 complex (Rattus norvegicus, UniProt O70377+P63045+Q08850); assay: Co-immunoprecipitation of SNARE complexes in activated RBL-2H3 cells, anti-SNAP-23 blot; type: cell-based; conditions: peptides added to the medium after A23187 pretreatment; IP of Vp2, blot anti-SNAP-23 (Figure 4C)
T1 construct: Lysates of RBL-2H3 cells; endogenous in cells; host or cells: RBL-2H3 (ATCC CRL-2256)
T1 sequence (Q08850 whole entry): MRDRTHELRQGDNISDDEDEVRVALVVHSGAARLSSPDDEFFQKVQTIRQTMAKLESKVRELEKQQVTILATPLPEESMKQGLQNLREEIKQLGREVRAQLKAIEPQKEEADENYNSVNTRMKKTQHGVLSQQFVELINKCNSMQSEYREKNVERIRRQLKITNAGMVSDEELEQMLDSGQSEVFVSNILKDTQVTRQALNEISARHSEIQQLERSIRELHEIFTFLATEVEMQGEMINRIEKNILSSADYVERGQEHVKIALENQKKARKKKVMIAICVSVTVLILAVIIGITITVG
T1 sequence (O70377 whole entry): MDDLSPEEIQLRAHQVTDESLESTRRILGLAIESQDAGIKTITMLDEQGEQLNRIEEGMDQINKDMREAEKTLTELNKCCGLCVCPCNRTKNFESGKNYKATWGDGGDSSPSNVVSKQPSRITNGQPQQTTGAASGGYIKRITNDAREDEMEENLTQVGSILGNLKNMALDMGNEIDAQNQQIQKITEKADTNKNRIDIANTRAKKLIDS
T1 sequence (P63045 whole entry): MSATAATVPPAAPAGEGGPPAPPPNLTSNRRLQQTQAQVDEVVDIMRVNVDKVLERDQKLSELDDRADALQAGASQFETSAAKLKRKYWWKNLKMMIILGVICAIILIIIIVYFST

[2] = molecular target: T2, SN23-Syn4-Vp2 SNARE complex (Rattus norvegicus, UniProt O70377+P63045+Q08850); assay: SNARE-driven membrane fusion (total lipid mixing) assay with proteoliposomes; type: biochemical; conditions: for inhibition of membrane fusion (lipid mixing): inhibitor applied to T-vesicles, T:V 9:1, 37°C, NBD dequenching, Vp2S/Vp8S at 10 µM, three independent experiments (Figure 3B-D); for inhibition of membrane fusion, peptide added after preincubation: peptide added after preincubation of T- and V-liposomes at 4°C overnight (partially zippered SNAREs) (Figure 4A); for inhibition of membrane fusion, peptide added before preincubation: peptide added before preincubation of T- and V-liposomes at 4°C overnight (Figure 4A)
T2 construct: Syn4 (amino acids 1–298); SNAP-23 (amino acids 1–210); full-length VAMP2 (VpF, amino acids 1–116); GST (N, cleaved yes); made in house; host or cells: Escherichia coli Rosetta(DE3)pLysS
T2 sequence (Q08850 whole entry, the tested form may be a part): as the sequence (Q08850 whole entry) above
T2 sequence (O70377 whole entry, the tested form may be a part): as the sequence (O70377 whole entry) above
T2 sequence (P63045 whole entry, the tested form may be a part): as the sequence (P63045 whole entry) above
Excerpt: Total RNA was obtained from RBL-2H3 cells using TRIzol® Reagent (#15596026, Invitrogen, Carlsbad, CA, USA) and served as a template for cDNA synthesis with M-MLV reverse transcriptase (M1705, Promega, Madison, WI, USA) according to the manufacturer’s protocol. The cDNAs amplified for rat Syn4, SNAP-23, VAMP2, VAMP4, VAMP7, and VAMP8 using each primer pair ([4]), were cloned into the pGEX-4T 1 vector. The mast cell SNARE proteins [Syn4 (amino acids 1–298), SNAP-23 (amino acids 1–210), full-length VAMP2 (VpF, amino acids 1–116), VAMP4 (amino acids 1–141), and VAMP8 (amino acids 1–100)] were expressed in Escherichia coli Rosetta(DE3)pLysS (#70956, Novagen, Darmstadt, Germany) and purified as glutathione-S-transferase-tagged fusion proteins as reported previously ([8]).
To prepare the unilamellar liposomes, a 50-mM lipid mixture of palmitoyl-2-oleoylphosphatidylcholine (POPC) (#850457, Avanti Polar Lipids, Alabaster, AL, USA):1,2-dioleoyl-phosphatidylserine (DOPS) (#840035, Avanti Polar Lipids) at 65:35 mol% was dried in a glass tube under a gentle stream of nitrogen gas and then exposed to a vacuum overnight. The resultant lipid film was resuspended in dialysis buffer (25 mM HEPES and 100 mM KCl, pH 7.4) by vortexing, followed by an extrusion step with polycarbonate membrane filters having a pore size of 100 nm (#610005, Avanti Polar Lipids). To prepare proteoliposomes, binary T-SNAREs, which were pre-formed by mixing Syn4 and SNAP-23 at room temperature for 60 min, were incubated with 50 mM unilamellar liposomes for 15 min at the same temperature, resulting in a 50:1 lipid/protein molar ratio ([9]).
For the preparation of V-SNARE proteoliposomes, a 10-mM premixed lipid solution [POPC:DOPS:N-(7-nitro-2-1,3-benzoxadiazol-4-yl (NBD))-phosphatidylserine (#810198, Avanti Polar Lipids):[…] (#810150, Avanti Polar Lipids) = 62:35:1.5:1.5 (molar ratio)] was used for the preparation of fluorescent liposomes in the same manner as above. The prepared liposomes were then mixed with VAMP2 for 15 min at room temperature. The liposome/protein mixture was diluted twice to bring the concentration of n-octyl glucoside (O8001, Sigma-Aldrich) below the critical micelle concentration. After overnight dialysis against 1L dialysis buffer at 4°C to remove the detergent, SM-2 bio-beads (#1523920, Bio-Rad Laboratories, Hercules, CA, USA) were added to the sample to remove any remaining n-octyl glucoside. The solution was then centrifuged at 10,000 × g to remove the protein/lipid aggregates, and the final lipid concentrations of both the T- and V-liposomes were adjusted to 1 mM with a lipid-to-protein ratio of 50:1.
A total lipid mixing assay using the T- and V-liposomes was performed as described previously with minor modifications ([8]). […] The fusion was monitored using the dequenching of NBD fluorescence signal (excitation 465 nm/emission 530 nm). After at least 80 min of fusion, the maximum NBD signal was obtained by adding 0.1% Triton X-100™. All the lipid-mixing experiments were performed at 37°C.

[3] = system: RBL-2H3 mast cells; assay: Degranulation assay, histamine release (enzyme immunoassay); type: cell-based, rat; conditions: for inhibition of histamine release: PTD-conjugated peptide without SLO (LY294002 as positive control), DNP-IgE sensitized, DNP-BSA stimulation, no A23187 pretreatment, three independent experiments (Figure 2C); for inhibition of histamine release after A23187 pretreatment: cells pretreated with A23187, sensitized with DNP-IgE, then PTD-conjugated peptide (Figure 4B)

SNARE complex formation in cells (amount of SN23-Syn4-Vp2 complex) [1]: reduced
Sequence: EDEMEENLTQVGSILGN [SC23N, 17-mer peptide, N-terminal region of SNAP-23 SNARE motif SC23]
inhibition of membrane fusion (lipid mixing) [2]: inhibited membrane fusion by both the SN23-Syn4-Vp2 and SN23-Syn4-Vp8 complexes | inhibition of membrane fusion, peptide added after preincubation [2]: inhibitory activities significantly diminished | inhibition of membrane fusion, peptide added before preincubation [2]: inhibited the membrane fusion induced by both SN23-Syn4-Vp2 and SN23-Syn4-Vp8

Sequence: LQSEVEGVKNIMTQNVE [Vp8N, 17-mer peptide, N-terminal region of VAMP8 SNARE motif]
inhibition of histamine release [3]: almost equally inhibited the release of both β-hexosaminidase and histamine | inhibition of histamine release after A23187 pretreatment [3]: inhibited both histamine and β-hexosaminidase release

Sequence: SARHSEIQQLERTIREL [Syn4N, 17-mer peptide, N-terminal region of syntaxin 4 SNARE motif]
SNARE complex formation in cells (amount of SN23-Syn4-Vp2 complex) [1]: reduced | inhibition of membrane fusion (lipid mixing) [2]: inhibited membrane fusion by both the SN23-Syn4-Vp2 and SN23-Syn4-Vp8 complexes | inhibition of membrane fusion, peptide added after preincubation [2]: inhibitory activities significantly diminished | inhibition of membrane fusion, peptide added before preincubation [2]: inhibited the membrane fusion induced by both SN23-Syn4-Vp2 and SN23-Syn4-Vp8 | inhibition of histamine release [3]: almost equally inhibited the release of both β-hexosaminidase and histamine | inhibition of histamine release after A23187 pretreatment [3]: inhibited both histamine and β-hexosaminidase release
